Measured values: the NIST ThermoML archive (doi:10.1021/je501118w)
“And” between values parts separate entries of the source, which are not always exact repeats. Identical values can stand only once. ± gives the expanded uncertainty stated by the source.

Details: Liquid, Vibrating tube method

CCCC[n+]1ccn(C)c1.O=S(=O)([N-]S(=O)(=O)C(F)(F)F)C(F)(F)F
Details	mass density
273.15 K, 100 kPa	1460.67 ± 0.83 kg/m3
278.15 K, 100 kPa	1455.84 ± 0.83 kg/m3
283.15 K, 100 kPa	1451.04 ± 0.83 kg/m3
288.15 K, 100 kPa	1446.23 ± 0.82 kg/m3
288.15 K, 10320 kPa	1453.8 ± 3.1 kg/m3
288.15 K, 15130 kPa	1457.1 ± 3.1 kg/m3
288.15 K, 20090 kPa	1460.4 ± 3.1 kg/m3
288.15 K, 24820 kPa	1463.6 ± 3.2 kg/m3
288.15 K, 25120 kPa	1463.3 ± 3.2 kg/m3
288.15 K, 30620 kPa	1467.3 ± 3.2 kg/m3
288.15 K, 39770 kPa	1473 ± 3.3 kg/m3
288.15 K, 49640 kPa	1478.8 ± 3.3 kg/m3
288.15 K, 50970 kPa	1479.2 ± 3.3 kg/m3
288.15 K, 76000 kPa	1493.8 ± 3.6 kg/m3
288.15 K, 100500 kPa	1506 ± 3.9 kg/m3
288.15 K, 124500 kPa	1517.8 ± 4.2 kg/m3
288.15 K, 150400 kPa	1528.9 ± 4.6 kg/m3
288.15 K, 151000 kPa	1529.4 ± 4.6 kg/m3
288.15 K, 175100 kPa	1539.3 ± 5 kg/m3
288.15 K, 199900 kPa	1548.8 ± 5.4 kg/m3
288.16 K, 99600 kPa	1506 ± 3.8 kg/m3
293.15 K, 100 kPa	1441.43 ± 0.82 kg/m3 and 1441.42 ± 0.82 kg/m3
298.15 K, 100 kPa	1436.64 ± 0.82 kg/m3 and 1436.6 ± 0.82 kg/m3
298.15 K, 9760 kPa	1444.2 ± 3.1 kg/m3
298.15 K, 15200 kPa	1448.1 ± 3.1 kg/m3
298.15 K, 24770 kPa	1454.6 ± 3.2 kg/m3
298.15 K, 24930 kPa	1454.4 ± 3.2 kg/m3
298.15 K, 39560 kPa	1464.3 ± 3.2 kg/m3
298.15 K, 50280 kPa	1470.6 ± 3.3 kg/m3
298.15 K, 100700 kPa	1498.7 ± 3.8 kg/m3
298.15 K, 124500 kPa	1510.5 ± 4.2 kg/m3
298.15 K, 150300 kPa	1522.1 ± 4.6 kg/m3
298.15 K, 174400 kPa	1532.5 ± 5 kg/m3
298.15 K, 200400 kPa	1543.2 ± 5.4 kg/m3 and 1542.9 ± 5.4 kg/m3
298.15 K, 249600 kPa	1561.5 ± 6.4 kg/m3
298.16 K, 20120 kPa	1451.5 ± 3.1 kg/m3
298.16 K, 30400 kPa	1458.4 ± 3.2 kg/m3
298.16 K, 50110 kPa	1470.9 ± 3.3 kg/m3
298.16 K, 75200 kPa	1485.4 ± 3.6 kg/m3
298.16 K, 100200 kPa	1498.6 ± 3.9 kg/m3
298.16 K, 150100 kPa	1522.3 ± 4.6 kg/m3
298.16 K, 225500 kPa	1553 ± 5.9 kg/m3
303.15 K, 100 kPa	1431.86 ± 0.82 kg/m3
313.15 K, 100 kPa	1422.34 ± 0.81 kg/m3
323.15 K, 100 kPa	1412.87 ± 0.8 kg/m3 and 1412.85 ± 0.8 kg/m3
323.15 K, 15150 kPa	1424.4 ± 3.1 kg/m3
323.15 K, 24310 kPa	1431.5 ± 3.1 kg/m3
323.15 K, 24670 kPa	1431.2 ± 3.1 kg/m3
323.15 K, 30100 kPa	1435.1 ± 3.2 kg/m3
323.15 K, 39780 kPa	1441.8 ± 3.2 kg/m3
323.15 K, 49910 kPa	1448.4 ± 3.3 kg/m3
323.15 K, 50470 kPa	1449.4 ± 3.3 kg/m3
323.15 K, 75400 kPa	1463.9 ± 3.5 kg/m3
323.15 K, 99600 kPa	1478.1 ± 3.8 kg/m3
323.15 K, 100500 kPa	1478 ± 3.8 kg/m3
323.15 K, 124700 kPa	1490.3 ± 4.1 kg/m3
323.15 K, 149600 kPa	1502.1 ± 4.5 kg/m3 and 1502.8 ± 4.5 kg/m3
323.15 K, 174600 kPa	1513 ± 4.8 kg/m3
323.15 K, 200000 kPa	1524.7 ± 5.3 kg/m3
323.15 K, 225000 kPa	1533.7 ± 5.7 kg/m3
323.15 K, 251500 kPa	1543 ± 6.3 kg/m3
323.16 K, 10250 kPa	1420.7 ± 3.1 kg/m3
323.16 K, 20180 kPa	1428.1 ± 3.1 kg/m3
323.16 K, 201000 kPa	1524.3 ± 5.3 kg/m3
333.15 K, 100 kPa	1403.48 ± 0.8 kg/m3
343.15 K, 100 kPa	1394.15 ± 0.79 kg/m3
348.15 K, 10050 kPa	1397.8 ± 3.1 kg/m3
348.15 K, 15200 kPa	1402 ± 3.1 kg/m3
348.15 K, 20220 kPa	1405.9 ± 3.1 kg/m3
348.15 K, 24790 kPa	1410.4 ± 3.1 kg/m3
348.15 K, 24830 kPa	1409.3 ± 3.1 kg/m3
348.15 K, 30300 kPa	1413.4 ± 3.2 kg/m3
348.15 K, 39980 kPa	1420.5 ± 3.2 kg/m3
348.15 K, 49890 kPa	1427.3 ± 3.3 kg/m3
348.15 K, 50730 kPa	1429.7 ± 3.3 kg/m3
348.15 K, 75400 kPa	1443.5 ± 3.5 kg/m3
348.15 K, 100300 kPa	1460.9 ± 3.8 kg/m3
348.15 K, 100500 kPa	1458.5 ± 3.8 kg/m3
348.15 K, 125100 kPa	1471.9 ± 4 kg/m3
348.15 K, 150000 kPa	1484.2 ± 6.5 kg/m3
348.15 K, 150500 kPa	1487.2 ± 6.5 kg/m3
348.15 K, 174700 kPa	1495.6 ± 4.8 kg/m3
348.15 K, 199200 kPa	1509.2 ± 5.4 kg/m3
348.15 K, 200600 kPa	1506.6 ± 5.4 kg/m3
348.15 K, 225700 kPa	1517 ± 5.6 kg/m3
348.15 K, 250700 kPa	1526.9 ± 6.1 kg/m3
353.15 K, 100 kPa	1384.88 ± 0.79 kg/m3
363.15 K, 100 kPa	1375.67 ± 0.78 kg/m3

CCCCCC[n+]1ccn(C)c1.O=S(=O)([N-]S(=O)(=O)C(F)(F)F)C(F)(F)F
Details	mass density
273.15 K, 101.33 kPa	1395.63 ± 0.8 kg/m3 and 1395.14 ± 0.8 kg/m3 and 1395.28 ± 0.8 kg/m3
278.15 K, 101.33 kPa	1390.37 ± 0.79 kg/m3 and 1390.93 ± 0.79 kg/m3
283.15 K, 101.33 kPa	1385.72 ± 0.79 kg/m3 and 1385.89 ± 0.79 kg/m3 and 1386.23 ± 0.79 kg/m3
288.15 K, 101.33 kPa	1381.16 ± 0.79 kg/m3 and 1381.54 ± 0.79 kg/m3
288.15 K, 14950 kPa	1393.3 ± 3.1 kg/m3
288.15 K, 20180 kPa	1396.8 ± 3.1 kg/m3
288.15 K, 25080 kPa	1400 ± 3.1 kg/m3
288.15 K, 30100 kPa	1403.2 ± 3.1 kg/m3
288.15 K, 40120 kPa	1409.5 ± 3.2 kg/m3
288.15 K, 49940 kPa	1415.3 ± 3.3 kg/m3
288.15 K, 75500 kPa	1429.5 ± 3.5 kg/m3
288.15 K, 124700 kPa	1453.9 ± 4 kg/m3
288.15 K, 174600 kPa	1474.9 ± 4.6 kg/m3
288.16 K, 100000 kPa	1442.2 ± 3.7 kg/m3
288.16 K, 150500 kPa	1465 ± 4.3 kg/m3
293.15 K, 101.33 kPa	1376.86 ± 0.79 kg/m3 [middle of 4 runs]
298.15 K, 101.33 kPa	1372.17 ± 0.78 kg/m3 [middle of 4 runs]
303.15 K, 101.33 kPa	1367.48 ± 0.78 kg/m3 and 1367.61 ± 0.78 kg/m3
313.15 K, 101.33 kPa	1358.37 ± 0.78 kg/m3 and 1358.51 ± 0.78 kg/m3 and 1358.44 ± 0.78 kg/m3
323.15 K, 101.33 kPa	1349.3 ± 0.77 kg/m3 and 1349.43 ± 0.77 kg/m3 and 1349.35 ± 0.77 kg/m3
333.15 K, 101.33 kPa	1340.33 ± 0.77 kg/m3 and 1340.27 ± 0.77 kg/m3 and 1340.4 ± 0.77 kg/m3
343.15 K, 101.33 kPa	1331.36 ± 0.76 kg/m3 and 1331.29 ± 0.76 kg/m3 and 1331.38 ± 0.76 kg/m3
353.15 K, 101.33 kPa	1322.46 ± 0.76 kg/m3 and 1322.34 ± 0.76 kg/m3 and 1322.43 ± 0.76 kg/m3
363.15 K, 101.33 kPa	1313.62 ± 0.75 kg/m3 and 1313.44 ± 0.75 kg/m3 and 1313.52 ± 0.75 kg/m3
